Holding throughout (assay): ≥ marks a high value that may be exact or a test limit, other limits are often not marked, values filed in µg/mL are converted to µM
The test system of assay [1] is Bacillus subtilis KCTC 3068.
For assay [2], the system named is Staphylococcus aureus KCTC 1621.
For assay [3], the system named is Enterococcus faecium ATCC 51559.
Assay [4] relates to Staphylococcus aureus CCARM 3089.
Assay [5] concerns Staphylococcus epidermidis KCTC 1917.
Assay [6] has as its system Pseudomonas aeruginosa CCARM 2095.
The subject of assay [7] is Escherichia coli KCTC 1682.
Assay [8] has as its system Staphylococcus aureus CCARM 3095.
The subject of assay [9] is Staphylococcus aureus CCARM 3090.
The subject of assay [10] is Salmonella typhimurium KCTC 1926.
In assay [11] the test system is Pseudomonas aeruginosa KCTC 1637.
The subject of assay [12] is Mucor circinelloides NRRL 3631.
In assay [13] the test system is Acinetobacter baumannii ATCC 17978.
Assay [14] deals with Pseudomonas aeruginosa ATCC 27853.
Assay [15] relates to Candida glabrata.
The subject of assay [16] is Enterobacter cloacae.
Assay [17] has as its system Klebsiella pneumoniae ATCC 10031.
Assay [18] has as its system Candida albicans NRRL Y-326.
Assay [19] deals with Candida parapsilosis NRRL Y-1761.
The test system of assay [20] is Fusarium solani NRRL 28548.
Assay [21] concerns Lichtheimia corymbifera NRRL 6251.
The subject of assay [22] is Candida dubliniensis.
Assay [23] deals with Staphylococcus aureus.
Assay [24] has as its system Staphylococcus aureus MR.
The subject of assay [25] is Candida parapsilosis.
For assay [26], the system named is Aspergillus fumigatus.
Assay [27] has as its system Candida tropicalis.
For assay [28], the system named is Kluyveromyces lactis.
Assay [29] concerns Candida albicans.
In assay [30] the test system is Staphylococcus epidermidis ATCC 51625.
The test system of assay [31] is Candida albicans 17-88.
Assay [32] relates to Candida krusei NRRL Y-27803.
Assay [33] has as its system Staphylococcus aureus ATCC 33592.
In assay [34] the test system is Candida krusei.
For assay [35], the system named is Cutibacterium acnes ATCC 11827.
Assay [36] concerns Debaryomyces hansenii.
Assay [37] has as its system Pseudomonas aeruginosa ATCC 19660.
In assay [38] the test system is Cutibacterium acnes ATCC 6919.
Assay [39] has as its system Aspergillus flavus ATCC MYA-3651.
The test system of assay [40] is Cutibacterium acnes.
Assay [41] deals with Staphylococcus aureus ATCC 29213.
For assay [42], the system named is Staphylococcus aureus ATCC 43300.
In assay [43] the test system is Salmonella enterica subsp. enterica serovar Pullorum C79-13.
Assay [44] relates to Bacillus subtilis CMCC 63501.
Assay [45] concerns Escherichia coli UB1005.
Assay [46] has as its system Staphylococcus epidermidis ATCC 12228.
Assay [47] concerns Salmonella typhimurium ATCC 7731.
For assay [48], the system named is Bacillus subtilis KCTC 2217.
Assay [49] relates to Acinetobacter baumannii KCTC 2508.

The structures appear in SMILES notation. In brackets after ≈: the same amount, converted by molar mass.

For `CC[C@H](C)[C@H](NC(=O)[C@@H](NC(=O)[C@H](Cc1cnc[nH]1)NC(=O)[C@H](CCCN=C(N)N)NC(=O)[C@H](C)NC(=O)[C@H](CCCN=C(N)N)NC(=O)[C@H](CC(C)C)NC(=O)[C@H](CO)NC(=O)[C@H](C)NC(=O)[C@H](CC(C)C)NC(=O)[C@@H](N)CC(N)=O)[C@@H](C)O)C(=O)N1CCC[C@H]1C(=O)N[C@@H](CCC(N)=O)C(=O)N[C@@H](CCCN=C(N)N)C(=O)N[C@@H](CCCCN)C(=O)N[C@@H](Cc1ccccc1)C(=O)NCC(=O)N[C@@H](CCCN=C(N)N)C(=O)N[C@@H](CCCN=C(N)N)C(=O)O` [NLASLRARHTIPQRKFGRR], the MIC (commonly the lowest concentration found to suppress growth) in [1] is 6.3 µM (≈ 14.3 µg/mL); in [2], 12.5 µM (≈ 28.5 µg/mL); in [3], at least 50 µM; in assay [4], 12.5 µM (≈ 28.5 µg/mL); in assay [5], 6.3 µM (≈ 14.3 µg/mL); in assay [6], 25 µM (≈ 56.9 µg/mL). The MIC was 6.3 µM (≈ 14.3 µg/mL) in assay [7]; 25 µM (≈ 56.9 µg/mL) in assay [8]; 25 µM (≈ 56.9 µg/mL) in assay [9]; 6.3 µM (≈ 14.3 µg/mL) in assay [10]; 6.3 µM (≈ 14.3 µg/mL) in assay [11].

On to `CC[C@H](C)[C@@H]1NC(=O)CNC(=O)[C@H](CCCCN)NC(=O)[C@H](Cc2ccc(O)cc2)NC(=O)[C@@H]2CSSC[C@H](NC1=O)C(=O)N[C@@H](Cc1ccc(O)cc1)C(=O)N[C@@H](CCCCN)C(=O)N[C@@H](CCCCN)C(=O)N[C@H](C(=O)N[C@@H](CCCCN)C(N)=O)CSSC[C@H](NC(=O)[C@H](Cc1c[nH]c3ccccc13)NC(=O)[C@@H](N)CCCN=C(N)N)C(=O)N[C@@H](Cc1ccccc1)C(=O)N[C@@H](CCCCN)C(=O)N[C@@H](C(C)C)C(=O)N2` [RWCFKVCYKGICYKKCK], for which the MIC came out at 29.7 µM (≈ 63.9 µg/mL) in [12]; 3.71 µM (≈ 7.98 µg/mL) in [13]; 3.71 µM (≈ 7.98 µg/mL) in [14]; 10.5 µM (≈ 22.7 µg/mL) in [15]; 3.71 µM (≈ 7.98 µg/mL) in assay [16]; 3.71 µM (≈ 7.98 µg/mL) in [17]. Further, the minimal inhibitory concentration (MIC) in assay [18] came to 5.25 µM (≈ 11.3 µg/mL); in [19], 14.8 µM (≈ 31.9 µg/mL); in [20] it was 0.927 µM (≈ 2 µg/mL); in assay [21], 0.927 µM (≈ 2 µg/mL); in assay [22], 3.7 µM (≈ 7.96 µg/mL); in assay [23], 5.25 µM (≈ 11.3 µg/mL). The MIC came to 2.62 µM (≈ 5.64 µg/mL) in assay [24]; 15 µM (≈ 32.3 µg/mL) in [25]; 29.7 µM (≈ 63.9 µg/mL) in assay [26]; 1.33 µM (≈ 2.86 µg/mL) in assay [27]; 1.9 µM (≈ 4.09 µg/mL) in assay [28]; 10.5 µM (≈ 22.7 µg/mL) in assay [29]. Besides, the MIC turned out to be 1.85 µM (≈ 3.99 µg/mL) in assay [30]; 7.4 µM (≈ 15.9 µg/mL) in assay [31]; 10.5 µM (≈ 22.6 µg/mL) in [32]; 1.85 µM (≈ 3.99 µg/mL) in [33]; 5.23 µM (≈ 11.3 µg/mL) in assay [34]; 3.71 µM (≈ 7.98 µg/mL) in [35]. For the same molecule, the MIC in assay [36] was 7.4 µM (≈ 15.9 µg/mL); in assay [37] it was 3.71 µM (≈ 7.98 µg/mL); in assay [38], 1.85 µM (≈ 3.99 µg/mL); in assay [39] it was 29.7 µM (≈ 63.9 µg/mL); in [40], 1.31 µM (≈ 2.82 µg/mL).

Consider `CC(C)C[C@H](NC(=O)[C@H](CCCCN)NC(=O)[C@H](CCCCN)NC(=O)[C@H](C)NC(=O)[C@@H](NC(=O)[C@H](CCCCN)NC(=O)[C@H](CO)NC(=O)[C@H](CC(C)C)NC(=O)[C@H](Cc1c[nH]c2ccccc12)NC(=O)[C@H](CC(C)C)NC(=O)[C@H](CCCCN)NC(=O)[C@H](CCCCN)NC(=O)[C@H](C)NC(=O)[C@@H](NC(=O)[C@H](CCCCN)NC(=O)[C@H](CO)NC(=O)[C@H](CC(C)C)NC(=O)[C@H](Cc1c[nH]c2ccccc12)NC(=O)[C@H](CC(C)C)NC(=O)[C@H](CCCCN)NC(=O)[C@H](CCCCN)NC(=O)[C@H](C)NC(=O)[C@@H](NC(=O)[C@H](CCCCN)NC(=O)[C@H](CO)NC(=O)[C@H](CC(C)C)NC(=O)[C@@H](N)Cc1c[nH]c2ccccc12)[C@@H](C)O)[C@@H](C)O)[C@@H](C)O)C(N)=O` [WLSKTAKKLWLSKTAKKLWLSKTAKKL], for which the MIC amounted to 2 µM (≈ 6.37 µg/mL) in assay [14]; 32 µM (≈ 102 µg/mL) in assay [41]; 32 µM (≈ 102 µg/mL) in assay [42]; 2 µM (≈ 6.37 µg/mL) in [43]; 8 µM (≈ 25.5 µg/mL) in assay [44]; 2 µM (≈ 6.37 µg/mL) in assay [45]. In addition, the MIC was 32 µM (≈ 102 µg/mL) in assay [46] and 8 µM (≈ 25.5 µg/mL) in [47].

In the case of `CC(C)C[C@H](NC(=O)[C@H](CC(C)C)NC(=O)[C@@H]1CCCN1C(=O)[C@H](CCCCN)NC(=O)[C@H](CCCCN)NC(=O)[C@H](CC(C)C)NC(=O)[C@H](CC(C)C)NC(=O)[C@H](CCCCN)NC(=O)[C@H](CCCCN)NC(=O)[C@H](Cc1c[nH]c2ccccc12)NC(=O)[C@@H](N)CCCCN)C(=O)N[C@@H](CCCCN)C(N)=O` [KWKKLLKKPLLK], the figures for the MIC in assay [14], in assay [48] and in assay [49] were above 25 µM, 6.25 µM (≈ 9.51 µg/mL) and 25 µM (≈ 38.1 µg/mL), respectively.

For the origin of these results see DBAASP.
